In PubChem BioAssay (NCI):
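Step 1: Grow cells in 96-well plates. Step 2: Expose to compound for 48 hours at 5 concentrations. Step 3: Interpolate endpoints linearly; if unreached, use highest concentration. TGI denotes the concentration required for complete inhibition of growth.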

Columns and labels:
Test in all cases: NCI anticancer screen, dose series, 48 h
KM20L2 colon = system: KM20L2 colon
RXF-631 renal = system: RXF-631 renal
HCC-2998 colon = system: HCC-2998 colon
SNB-19 CNS = system: SNB-19 CNS
TK-10 renal = system: TK-10 renal
M19-MEL melanoma = system: M19-MEL melanoma
HCT-116 colon = system: HCT-116 colon
DMS 114 small cell lung = system: DMS 114 small cell lung
DLD-1 colon = system: DLD-1 colon
SNB-78 CNS = system: SNB-78 CNS
XF 498 CNS = system: XF 498 CNS
DMS 273 small cell lung = system: DMS 273 small cell lung
LXFL 529 NSCLC = system: LXFL 529 NSCLC
HOP-18 NSCLC = system: HOP-18 NSCLC
NCI/ADR-RES ovarian = system: NCI/ADR-RES ovarian
T-47D breast = system: T-47D breast

SMILES	TGI (KM20L2 colon) [µM]	TGI (RXF-631 renal) [µM]	TGI (HCC-2998 colon) [µM]	TGI (SNB-19 CNS) [µM]	TGI (TK-10 renal) [µM]	TGI (M19-MEL melanoma) [µM]	TGI (HCT-116 colon) [µM]	TGI (DMS 114 small cell lung) [µM]	TGI (DLD-1 colon) [µM]	TGI (SNB-78 CNS) [µM]	TGI (XF 498 CNS) [µM]	TGI (DMS 273 small cell lung) [µM]	TGI (LXFL 529 NSCLC) [µM]	TGI (HOP-18 NSCLC) [µM]	TGI (NCI/ADR-RES ovarian) [µM]	TGI (T-47D breast) [µM]
Cc1ccc(S(=O)(=O)N/N=C/c2oc(-c3ccccc3Cl)c(-c3ccccc3Cl)c2[N+](=O)[O-])cc1	37.9	60.3	47.9	64	> 100	65	46.6	76.7	47.9	–	–	–	–	–	–	–
Cc1ccc(NC(=O)C(=O)C2NC(=S)NC2=O)c([N+](=O)[O-])c1 (stereo not drawn)	> 100	–	> 100	> 100	> 100	> 100	> 100	> 100	> 100	> 100	> 100	> 100	> 100	> 100	–	–
CCOP(=O)(OCC)/C(C#N)=C/c1ccc[nH]1	> 100	–	–	> 100	> 100	> 100	> 100	> 100	> 100	> 100	–	> 100	> 100	> 100	–	–
NC(CCCCN=Cc1nc(-c2ccccc2)oc1O)C(=O)O (stereo not drawn)	> 100	–	> 100	> 100	> 100	> 100	> 100	> 100	> 100	> 100	> 100	> 100	> 100	–	–	–
O=c1[nH]c(=O)n(C2CC(O)C(CO)O2)cc1C#Cc1cc(C(F)(F)F)cc(C(F)(F)F)c1 (stereo not drawn)	> 100	> 100	> 100	> 100	> 100	> 74	> 100	> 100	> 100	> 100	> 86.6	> 93.6	> 100	> 100	–	–
COc1ccc(CC2NCCc3cc(OC)c(OC)cc32)cc1 (stereo not drawn)	> 100	> 100	> 100	> 100	> 100	> 100	> 100	> 100	> 100	> 100	> 100	> 100	> 100	> 100	–	–
O=C1c2ccccc2C(=O)C2C3c4ccccc4C(c4ccccc43)C12 (stereo not drawn)	> 100	–	88.8	> 100	63.3	40	> 100	42.7	> 100	51.3	–	39.4	37.2	–	–	–
CC(C)C(Sc1nc(-c2ccccc2)c(-c2ccccc2)[nH]1)C(=O)N/N=C/c1ccc([N+](=O)[O-])cc1 (stereo not drawn)	32.9	–	–	41.7	> 100	23.8	28	68.2	> 100	> 100	41	27.5	33.8	–	–	–
Nc1ccc(C(=O)NN2C(=O)C(Cl)C2c2ccc([N+](=O)[O-])cc2)cc1 (stereo not drawn)	27.4	–	21.2	26	33.5	28	4.31	11.2	21.8	51.7	–	17.5	18.2	–	–	–
CC(C)[Si](OCC1CC(C[C@H]2CC(C[C@H]3C[C@@H](CO[Si](C(C)C)(C(C)C)C(C)C)OC(C)(C)O3)OC(C)(C)O2)OC(C)(C)O1)(C(C)C)C(C)C (stereo partly drawn)	> 100	–	> 100	> 100	> 100	> 100	> 100	> 100	> 100	> 100	–	> 100	–	> 100	–	–
O=C1SC(c2ccccc2)(c2ccccc2)c2ccccc21	> 100	–	> 100	> 100	> 100	> 100	> 100	94.4	> 100	> 100	> 100	> 100	> 100	> 100	–	–
Cc1cc(NS(=O)(=O)c2ccc(NC(=O)c3cccc4cc5ccccc5nc34)cc2)no1	75.1	37.5	–	19.3	89.3	74.3	19.6	49.2	52.1	69.6	33.6	32.4	31.5	–	–	–
O=C(O)C(Cc1cnc[nH]1)N=Cc1nc(-c2ccccc2)oc1O (stereo not drawn)	> 100	–	> 100	> 100	> 100	> 100	> 100	> 100	> 100	> 100	> 100	> 100	> 100	–	–	–
COc1cc2c(oc(=O)c3cc4ccoc4c(OC)c32)c2cccc(O)c12	> 100	–	> 100	> 100	> 100	> 100	> 100	> 100	> 100	> 100	> 100	> 100	> 100	> 100	–	–
C[N+](C)(C)Cc1c(CC#N)[nH]c2ccccc12	> 100	–	> 100	> 100	> 100	> 100	> 100	> 100	> 100	–	> 100	> 100	> 100	–	–	–
Cc1ccc([N+](=O)[O-])cc1NC(=O)C(=O)Cc1cc(=O)oc2cc(O)ccc12	> 100	–	> 100	> 100	> 100	> 100	47.5	36.3	> 100	> 100	> 100	–	> 100	> 100	–	–
Cc1nc2c(n1CCC(C)C)C(=O)c1ccccc1C2=O	> 100	–	> 100	> 100	> 100	28.5	22.6	–	> 100	> 100	36.4	29.4	> 100	–	–	–
CNC(=O)c1n[nH]n(Cc2ccccc2)c1=S	–	–	> 100	> 100	> 100	–	> 100	–	–	–	–	–	–	–	> 100	> 100
O=Cc1[nH]c(=O)[nH]c(=O)c1CCl	–	–	> 100	> 100	> 100	–	> 100	–	–	–	–	–	–	–	> 100	> 100
